US8637498B2, “Oxopiperazine-azetidine amides and oxodiazepine-azetidine amides as monoacylglycerol lipase inhibitors” (Janssen Pharmaceutica, NV, priority 2010, dated 2014)
Changes are numbered by the printed parent chain. Read-outs that look alike come from different tables or passages of the source.

Key:
[1] = target: T1, purified wild type MGL (wt-MGLL 6H-11-313) (Homo sapiens, UniProt Q99685); experiment: MGL Enzyme Activity Assay (wild type MGL, 4MU-B substrate); format: biochemical; details: wild type MGL 5 nM, 4MU-B 10 μM, 37° C.; read-out: MGL wild type inh IC50
T1 construct: wt-MGLL 6H-11-313; 6H (hexahistidine) (N)
T1 sequence (Q99685 1-303): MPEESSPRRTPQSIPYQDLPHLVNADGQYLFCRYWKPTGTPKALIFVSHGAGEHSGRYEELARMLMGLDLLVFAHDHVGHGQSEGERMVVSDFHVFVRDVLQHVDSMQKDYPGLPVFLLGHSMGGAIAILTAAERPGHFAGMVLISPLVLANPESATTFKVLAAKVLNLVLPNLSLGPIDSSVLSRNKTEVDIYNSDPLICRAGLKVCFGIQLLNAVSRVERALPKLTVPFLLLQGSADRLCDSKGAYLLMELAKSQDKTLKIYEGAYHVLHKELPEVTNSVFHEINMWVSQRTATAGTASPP
Method: All rate-based assays were performed in black 384-well polypropylene PCR microplates (Abgene) in a total volume of 30 μL. Substrate 4-methylumbelliferyl butyrate (4MU-B; Sigma) and either purified mutant MGL (mut-MGLL 11-313 L179S L186S) or purified wild type MGL (wt-MGLL 6H-11-313) were diluted separately into 20 mM PIPES buffer (pH=7.0), containing 150 mM NaCl and 0.001% Tween 20. Compounds of Formula (Ia) and (Ib) were pre-dispensed (50 nL) into the assay plate using a Cartesian Hummingbird prior to adding 4MU-B (25 μL of 1.2× solution to a final concentration of 10 μM) followed by enzyme (5 μL of a 6× solution to a final concentration of 5 nM) to initiate the reaction. Final compound concentrations ranged from 17 to 0.0003 μM. The fluorescence change due to 4MU-B cleavage was monitored with excitation and emission wavelengths of 335 and 440 nm, respectively, and a bandwidth of 10 nm (Safire^2, Tecan) at 37° C. for 5 min.
The IC50 values for compounds of Formula (Ia) or (Ib) were determined using Excel from a fit of the equation to the concentration-response plot of the fractional activity as a function of inhibitor concentration.

[2] = target: T2, mutant MGL (Homo sapiens, UniProt Q99685, L169S/L176S); experiment: MGL ThermoFluor Assay - Mutant; format: binding
T2 construct: mut-MGLL 11-313 L179S L186S
T2 sequence (Q99685 1-303 L169S/L176S): T1 sequence (Q99685 1-303) with L169S, L176S
Method: The ThermoFluor (TF) assay is a 384-well plate-based binding assay that measures thermal stability of proteins^1,2. The experiments were carried out using instruments available from Johnson & Johnson Pharmaceutical Research & Development, LLC. TF dye used in all experiments was 1,8-ANS (Invitrogen: A-47). Final TF assay conditions used for MGL studies were 0.07 mg/ml of mutant MGL, 100 μM ANS, 200 mM NaCl, 0.001% Tween-20 in 50 mM PIPES (pH=7.0).
Screening compound plates contained 100% DMSO compound solutions at a single concentration. For follow-up concentration-response studies, compounds were arranged in a pre-dispensed plate (Greiner Bio-one: 781280), wherein compounds were serially diluted in 100% DMSO across 11 columns within a series. Columns 12 and 24 were used as DMSO reference and contained no compound. For both single and multiple compound concentration-repsonse experiments, the compound aliquots (46 nL) were robotically predispensed directly into 384-well black assay plates (Abgene: TF-0384/k) using the Hummingbird liquid handler. Following compound dispension, protein and dye solutions were added to achieve the final assay volume of 3 μL. The assay solutions were overlayed with 1 μL of silicone oil (Fluka, type DC 200: 85411) to prevent evaporation.
Bar-coded assay plates were robotically loaded onto a thermostatically controlled PCR-type thermal block and then heated from 40 to 90° C. degrees at a ramp-rate of 1° C./min for all experiments. Fluorescence was measured by continuous illumination with UV light (Hamamatsu LC6), supplied via fiber optics and filtered through a band-pass filter (380-400 nm; >6 OD cutoff). Fluorescence emission of the entire 384-well plate was detected by measuring light intensity using a CCD camera (Sensys, Roper Scientific) filtered to detect 500±25 nm, resulting in simultaneous and independent readings of all 384 wells. A single image with 20-sec exposure time was collected at each temperature, and the sum of the pixel intensity in a given area of the assay plate was recorded vs temperature and fit to standard equations to yield the Tm^1. • 1. Pantoliano, M. W., Petrella, E. C., Kwasnoski, J. D., Lobanov, V. S., Myslik, J., Graf, E., Carver, T., Asel, E., Springer, B. A., Lane, P., and Salemme, F. R. (2001) J Biomol Screen 6, 429-40. • 2. Matulis, D., Kranz, J. K., Salemme, F. R., and Todd, M. J. (2005) Biochemistry 44, 5258-66.
The Kd values for compounds of Formula (Ia) and (Ib) were determined from a fit of the equation to the concentration-response plot of the fractional activity as a function of Tm. For some experiments, quantitative NMR spectroscopy (qNMR) was used to measure concentration of the initial 100% DMSO compound solutions and, using the same fitting method, qKd values were determined.

[3] = mutant MGL, compound concentration measured by qNMR, read-out: MGL mutant ThermoFluor qKd (using qNMR conc.)
[4] = mutant MGL 0.07 mg/ml, 1,8-ANS dye, read-out: MGL mutant ThermoFluor Kd

Row | IC50 [1] [nM] | Kd [2, 3] [nM] | Kd [2, 4] [nM] | Structure (SMILES)
1 | 248 | 282 |  | O=C(c1ccc2c(ccn2-c2ccc(F)cc2)c1)N1CC(N2CCC(=O)N(c3ncccn3)CC2)C1 [Cpd 20, 1-(1-{[1-(4-Fluorophenyl)-1H-indol-5-yl]carbonyl}azetidin-3-yl)-4-pyrimidin-2-yl-1,4-diazepan-5-one]
2 | < 5 | 1 |  | O=C(c1ccc2c(ccn2-c2ccc(F)cc2)c1)N1CC(N2CCC(=O)N(c3nccs3)CC2)C1 [Cpd 21, 1-(1-{[1-(4-Fluorophenyl)-1H-indol-5-yl]carbonyl}azetidin-3-yl)-4-(1,3-thiazol-2-yl)-1,4-diazepan-5-one]
3 | 1660 | 1370 |  | O=C(c1ccc(-c2ccccc2)cc1)N1CC(N2CCN(c3nccs3)C(=O)C2)C1 [Cpd 18, 4-[1-(Biphenyl-4-ylcarbonyl)azetidin-3-yl]-1-(1,3-thiazol-2-yl)piperazin-2-one]
4 | 55.4 | 52.5 |  | O=C(c1sc2cc(C(F)(F)F)ccc2c1Cl)N1CC(N2CCC(=O)N(c3ncccn3)CC2)C1 [Cpd 17, 1-(1-{[3-Chloro-6-(trifluoromethyl)-1-benzothiophen-2-yl]carbonyl}azetidin-3-yl)-4-pyrimidin-2-yl-1,4-diazepan-5-one]
5 | 67.7 | 1380 |  | O=C(c1ccc2nc(-c3ccccc3)oc2c1)N1CC(N2CCN(c3nccs3)C(=O)C2)C1 [Cpd 16, 4-{1-[(2-Phenyl-1,3-benzoxazol-6-yl)carbonyl]azetidin-3-yl}-1-(1,3-thiazol-2-yl)piperazin-2-one]
6 | 568 |  | 714 | O=C(c1cc2ccc(C(F)(F)F)cc2s1)N1CC(N2CCN(c3ncccn3)CC2=O)C1 [Cpd 23, 4-Pyrimidin-2-yl-1-(1-{[6-(trifluoromethyl)-1-benzothiophen-2-yl]carbonyl}azetidin-3-yl)piperazin-2-one]
7 | < 5 | 0.8 |  | O=C(c1sc2cc(C(F)(F)F)ccc2c1Cl)N1CC(N2CCC(=O)N(c3nccs3)CC2)C1 [Cpd 19, 1-(1-{[3-Chloro-6-(trifluoromethyl)-1-benzothiophen-2-yl]carbonyl}azetidin-3-yl)-4-(1,3-thiazol-2-yl)-1,4-diazepan-5-one]
8 | < 5 | 2.5 |  | O=C(c1ccc2nc(-c3ccccc3)oc2c1)N1CC(N2CCC(=O)N(c3nccs3)CC2)C1 [Cpd 22, 1-{1-[(2-Phenyl-1,3-benzoxazol-6-yl)carbonyl]azetidin-3-yl}-4-(1,3-thiazol-2-yl)-1,4-diazepan-5-one]
9 | 304 |  | 1970 | O=C(c1ccc2c(ccn2-c2ccc(F)c(F)c2)c1)N1CC(N2CCN(c3ccccc3)C(=O)C2)C1 [Cpd 15, 4-(1-{[1-(3,4-Difluorophenyl)-1H-indol-5-yl]carbonyl}azetidin-3-yl)-1-phenylpiperazin-2-one]

More lines, now with the values behind:

Row | Structure (SMILES) | IC50 [1] [nM] | Kd [2, 3] [nM] | Kd [2, 4] [nM]
10 | O=C(c1ccc2nc(-c3ccccc3)sc2c1)N1CC(N2CCN(c3ncccn3)C(=O)C2)C1 [Cpd 10, 4-{1-[(2-Phenyl-1,3-benzothiazol-6-yl)carbonyl]azetidin-3-yl}-1-pyrimidin-2-ylpiperazin-2-one] | 3640 | 10600 | 
11 | O=C(c1sc2cc(C(F)(F)F)ccc2c1Cl)N1CC(N2CCN(c3ncccn3)C(=O)C2)C1 [Cpd 8, 4-(1-{[3-Chloro-6-(trifluoromethyl)-1-benzothiophen-2-yl]carbonyl}azetidin-3-yl)-1-pyrimidin-2-ylpiperazin-2-one] | 124 | 165 | 
12 | O=C(c1sc2cc(C(F)(F)F)ccc2c1Cl)N1CC(N2CCN(c3nccs3)C(=O)C2)C1 [Cpd 11, 4-(1-{[3-Chloro-6-(trifluoromethyl)-1-benzothiophen-2-yl]carbonyl}azetidin-3-yl)-1-(1,3-thiazol-2-yl)piperazin-2-one] | < 5 |  | 64.3
13 | O=C(c1ccc(-c2ccccc2)cc1)N1CC(N2CCN(c3ncccn3)C(=O)C2)C1 [Cpd 9, 4-[1-(Biphenyl-4-ylcarbonyl)azetidin-3-yl]-1-pyrimidin-2-ylpiperazin-2-one] | 7850 | 5660 | 
14 | O=C(c1ccc2c(ccn2-c2ccc(C(F)(F)F)cc2)c1)N1CC(N2CCN(c3ccccc3)C(=O)C2)C1 [Cpd 13, 1-Phenyl-4-[1-({1-[4-(trifluoromethyl)phenyl]-1H-indol-5-yl}carbonyl)azetidin-3-yl]piperazin-2-one] | 908 |  | 1350
15 | O=C(c1ccc2c(ccn2-c2ccc(F)cc2)c1)N1CC(N2CCN(c3ncccn3)C(=O)C2)C1 [Cpd 4, 4-(1-{[1-(4-Fluorophenyl)-1H-indol-5-yl]carbonyl}azetidin-3-yl)-1-pyrimidin-2-ylpiperazin-2-one] | 134 | 943 | 
16 | O=C(c1ccc2nc(-c3ccccc3)sc2c1)N1CC(N2CCN(c3nccs3)C(=O)C2)C1 [Cpd 12, 4-{1-[(2-Phenyl-1,3-benzothiazol-6-yl)carbonyl]azetidin-3-yl}-1-(1,3-thiazol-2-yl)piperazin-2-one] | 98.6 |  | 994
17 | O=C(c1sc2cc(C(F)(F)F)ccc2c1Cl)N1CC(N2CCN(c3ccccc3)C(=O)C2)C1 [Cpd 14, 4-(1-{[3-Chloro-6-(trifluoromethyl)-1-benzothiophen-2-yl]carbonyl}azetidin-3-yl)-1-phenylpiperazin-2-one] | 225 |  | 495
